In ChEMBL document CHEMBL1201862, “PubChem BioAssay data set” (2004):
The source made the active and inactive calls.

Assays:
[1] = system: Streptococcus; assay: Group A Streptococcus viability loss, dose response, counter-screen for streptokinase expression inhibitor project, luminescence, BacTiterGlo (AID 1915); type: functional, organism-based;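 also: potency for reduction of bacterial viability or growth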
[2] = system: Streptococcus sp. 'group A'; assay: growth inhibition of control SK(-) GAS strain, dose response, counter-screen for streptokinase expression inhibitor project, luminescence, kanamycin, BacTiterGlo, confirmation (AID 1900); type: functional, organism-based
[3] = biological target: T1, Heat shock factor protein 1 (Mus musculus, UniProt P38532); assay: HSF1 potentiators in luciferase reporter cells, confirmation, cell-based, NIH3T3, luminescence, dose retest (AID 435004); type: functional;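 also: stress induced by proteasome inhibitor MG132 added 30 min after compound; luciferase reporter driven by HSF1 response element in NIH3T3 cells; actives raise luminescence as potentiators of the MG132 stress response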
T1 sequence (P38532 whole entry): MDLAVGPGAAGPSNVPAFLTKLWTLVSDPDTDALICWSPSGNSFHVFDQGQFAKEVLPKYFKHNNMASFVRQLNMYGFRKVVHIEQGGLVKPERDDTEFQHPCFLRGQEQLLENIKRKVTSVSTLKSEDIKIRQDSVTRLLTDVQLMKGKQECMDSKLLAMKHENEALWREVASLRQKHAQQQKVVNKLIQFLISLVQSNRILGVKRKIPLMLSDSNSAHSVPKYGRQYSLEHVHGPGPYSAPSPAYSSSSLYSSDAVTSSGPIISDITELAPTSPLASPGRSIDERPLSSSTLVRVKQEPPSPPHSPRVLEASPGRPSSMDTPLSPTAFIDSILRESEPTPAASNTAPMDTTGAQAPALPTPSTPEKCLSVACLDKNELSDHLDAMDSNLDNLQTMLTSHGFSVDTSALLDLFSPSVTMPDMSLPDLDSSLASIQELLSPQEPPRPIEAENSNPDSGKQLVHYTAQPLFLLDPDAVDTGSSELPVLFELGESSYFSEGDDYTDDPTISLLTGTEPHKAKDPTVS

[4] = biological target: T2, Replicative DNA helicase DnaB (Mycobacterium tuberculosis, UniProt P9WMR3); assay: DnaB intein splicing inhibitors, dose response, biochemical, cell-free fluorescence (AID 449749); type: functional
T2 sequence (P9WMR3 whole entry): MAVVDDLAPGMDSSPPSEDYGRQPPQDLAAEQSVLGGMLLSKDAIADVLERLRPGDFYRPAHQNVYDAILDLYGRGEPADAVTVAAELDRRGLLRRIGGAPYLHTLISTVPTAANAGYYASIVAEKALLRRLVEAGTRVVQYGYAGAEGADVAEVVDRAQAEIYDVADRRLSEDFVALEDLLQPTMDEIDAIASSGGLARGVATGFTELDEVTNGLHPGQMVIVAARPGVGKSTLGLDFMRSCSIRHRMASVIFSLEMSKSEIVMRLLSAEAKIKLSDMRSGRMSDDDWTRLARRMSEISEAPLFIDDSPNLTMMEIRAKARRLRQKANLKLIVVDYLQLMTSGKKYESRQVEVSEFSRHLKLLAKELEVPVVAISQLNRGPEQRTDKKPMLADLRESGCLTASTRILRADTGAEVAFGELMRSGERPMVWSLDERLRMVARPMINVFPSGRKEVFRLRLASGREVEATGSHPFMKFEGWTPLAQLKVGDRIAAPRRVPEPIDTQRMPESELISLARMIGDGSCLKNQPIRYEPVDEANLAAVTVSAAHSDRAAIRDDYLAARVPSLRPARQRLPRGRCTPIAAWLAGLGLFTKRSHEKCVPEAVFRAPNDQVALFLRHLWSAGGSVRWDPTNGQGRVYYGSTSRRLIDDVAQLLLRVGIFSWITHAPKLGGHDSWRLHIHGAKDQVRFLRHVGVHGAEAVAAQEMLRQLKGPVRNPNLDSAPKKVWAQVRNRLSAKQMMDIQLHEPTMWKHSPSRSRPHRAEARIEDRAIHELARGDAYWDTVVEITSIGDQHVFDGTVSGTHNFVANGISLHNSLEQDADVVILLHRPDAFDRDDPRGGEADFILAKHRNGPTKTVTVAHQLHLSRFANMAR

[5] = cytotoxicity toward NIH3T3 fibroblasts, dose response, counter-screen, cell-based, ATP luminescence, mouse fibroblasts (AID 2010); type: functional;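 also: cells exposed to compound for about 90 hours before reading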
[6] = biological target: T3, Streptokinase A (Streptococcus pyogenes serotype M1, UniProt P10520); assay: S. pyogenes streptokinase expression inhibitors, potency, dose response, plasminogen activation absorbance, OD405 (AID 1914); type: functional, Streptococcus pyogenes M1 GAS;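 also: secreted streptokinase activity via plasminogen activation per viability signal from cell pellet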
T3 sequence (P10520 whole entry): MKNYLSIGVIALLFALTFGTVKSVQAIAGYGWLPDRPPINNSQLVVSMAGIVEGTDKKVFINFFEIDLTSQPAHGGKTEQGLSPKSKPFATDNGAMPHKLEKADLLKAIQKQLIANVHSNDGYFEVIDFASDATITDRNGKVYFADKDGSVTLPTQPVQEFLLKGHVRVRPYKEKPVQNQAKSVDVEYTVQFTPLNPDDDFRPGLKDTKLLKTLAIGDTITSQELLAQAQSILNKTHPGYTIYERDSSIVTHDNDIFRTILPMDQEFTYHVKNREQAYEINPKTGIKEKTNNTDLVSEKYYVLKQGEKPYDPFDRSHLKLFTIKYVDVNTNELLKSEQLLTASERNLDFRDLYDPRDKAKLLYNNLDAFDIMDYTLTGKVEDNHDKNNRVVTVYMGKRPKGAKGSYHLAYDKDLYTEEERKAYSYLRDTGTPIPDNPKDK

[7] = biological target: T4, Protein RecA (Mycobacterium tuberculosis, UniProt P9WHJ3); assay: Fluorescence Cell-Free Homogeneous Dose Retest to Identify Inhibitors of RecA-Intein Splicing Activity. [Related pubchem assays (depositor defined):AID2097, AID2223, AID489010, AID492950]; type: functional
T4 sequence (P9WHJ3 whole entry): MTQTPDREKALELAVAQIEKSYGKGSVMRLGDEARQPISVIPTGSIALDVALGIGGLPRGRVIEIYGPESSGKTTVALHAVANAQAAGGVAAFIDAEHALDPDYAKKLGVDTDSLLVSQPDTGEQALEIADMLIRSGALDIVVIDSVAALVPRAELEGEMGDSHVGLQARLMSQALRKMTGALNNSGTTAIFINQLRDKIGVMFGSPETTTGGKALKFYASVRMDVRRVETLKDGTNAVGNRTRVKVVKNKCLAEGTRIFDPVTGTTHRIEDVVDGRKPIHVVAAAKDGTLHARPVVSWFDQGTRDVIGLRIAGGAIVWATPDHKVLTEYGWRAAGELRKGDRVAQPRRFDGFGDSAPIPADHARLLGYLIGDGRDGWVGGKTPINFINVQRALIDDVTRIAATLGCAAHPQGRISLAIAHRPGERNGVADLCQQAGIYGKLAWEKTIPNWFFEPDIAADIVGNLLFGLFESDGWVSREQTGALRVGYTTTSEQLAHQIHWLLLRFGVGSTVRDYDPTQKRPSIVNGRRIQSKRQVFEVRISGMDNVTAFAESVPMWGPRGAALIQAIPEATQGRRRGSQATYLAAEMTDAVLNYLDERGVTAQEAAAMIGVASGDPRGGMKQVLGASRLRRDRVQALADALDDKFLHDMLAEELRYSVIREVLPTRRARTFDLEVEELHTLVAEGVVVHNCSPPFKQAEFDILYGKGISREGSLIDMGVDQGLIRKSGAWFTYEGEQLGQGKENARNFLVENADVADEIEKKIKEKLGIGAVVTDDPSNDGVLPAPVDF

[8] = biological target: Melanocortin receptor 4 (Homo sapiens, UniProt P32245); type: functional, cell-based;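 also: Cell-based assay with luminescence read-out, confirmatory dose-response testing for agonist activity of biased ligands at MC4R; human U2OS cells with tagged receptor and beta-arrestin; potency of agonists that increase receptor coupling to beta-arrestin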
[9] = Luminescence Cell-Based Dose Retest to Confirm Inhibitors of Cancer Stem Cells. [Related pubchem assays (depositor defined):AID2717, AID2721]; type: functional; conditions: Homo sapiens
[10] = inhibitors of intracellular T. cruzi replication, confirmation, NIH3T3 host cells, beta-gal luminescence (AID 2044); type: functional, cell-based;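 also: intracellular parasites grown in NIH/3T3 mouse fibroblasts as host cells; luminescent beta-galactosidase reporter signal from transgenic T. cruzi replicating inside host cells; inhibitors lower the luminescence signal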
[11] = HEp-2 cell cytotoxicity, dose response, cytotoxicity control for RSV inhibitor project, HTS (AID 2410); type: functional; conditions: human respiratory syncytial virus
[12] = biological target: Beta-galactosidase (Escherichia coli, UniProt Q8VNN2); assay: Dose response counterscreen for EBI2 assay utilizing the enzyme, b-galactosidase.; type: functional
[13] = biological target: Steroidogenic factor 1 (Homo sapiens, UniProt Q13285); assay: Counterscreen for inverse agonists of the liver receptor homolog-1 (LRH-1; NR5A2): Luminescence-based cell-based high throughput dose response assay to identify inverse agonists of the Steroidogenic Factor 1 Nuclear Receptor (SF1; NR5A1).; type: functional
[14] = biological target: Nuclear receptor subfamily 5 group A member 2 (Homo sapiens, UniProt O00482); type: functional, cell-based;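 also: HEK293T cells transfected with LRH-1 and a StAR promoter luciferase reporter; potency for inhibitors that lower LRH-1 driven reporter light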
[15] = StAR promoter reporter inhibition counter-screen, dose response, counter-screen for LRH-1 inverse agonist project, cell-based, luminescence, luciferase reporter (AID 651969); type: functional
[16] = HepG2 cell cytotoxicity, dose response, cytotoxicity control for Shn3 inhibitor project, CellTiter-Glo, cherry-picked (AID 624134); type: functional, cell-based
[17] = Vero E6 cell cytotoxicity, dose response, cytotoxicity control for non-replicating M. tuberculosis project, secondary assay (AID 492998); type: functional, VeroE6; conditions: Vero C1008
[18] = Shn3 3'UTR reporter inhibitors, dose response, cell-based, Clone20 osteoblasts, firefly luciferase, cherry-picked (AID 624132); type: functional;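 also: firefly luciferase luminescence from reporter carrying the Shn3 3'UTR in osteoblasts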
[19] = cells; type: functional
[20] = system: INS1; assay: beta cell apoptosis inhibitors, cytokine rescue, dose response, luminescence, retest (AID 449756); type: functional, cell-based; conditions: Rattus norvegicus;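 also: cell death triggered by IL-1 beta plus TNF-alpha plus IFN-gamma mixture; protective hits raise ATP signal compared with cytokine alone wells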
[21] = THP-1 cell cytotoxicity, dose response, cytotoxicity control for non-replicating M. tuberculosis project (AID 489025); type: functional
[22] = control 3'UTR Renilla luciferase suppression, dose response, counter-screen for Shn3 inhibitor project, cell-based, Clone20-Shn3RL, cherry-picked (AID 624133); type: functional

Steroidogenic factor 1, sequence (Q13285 whole entry): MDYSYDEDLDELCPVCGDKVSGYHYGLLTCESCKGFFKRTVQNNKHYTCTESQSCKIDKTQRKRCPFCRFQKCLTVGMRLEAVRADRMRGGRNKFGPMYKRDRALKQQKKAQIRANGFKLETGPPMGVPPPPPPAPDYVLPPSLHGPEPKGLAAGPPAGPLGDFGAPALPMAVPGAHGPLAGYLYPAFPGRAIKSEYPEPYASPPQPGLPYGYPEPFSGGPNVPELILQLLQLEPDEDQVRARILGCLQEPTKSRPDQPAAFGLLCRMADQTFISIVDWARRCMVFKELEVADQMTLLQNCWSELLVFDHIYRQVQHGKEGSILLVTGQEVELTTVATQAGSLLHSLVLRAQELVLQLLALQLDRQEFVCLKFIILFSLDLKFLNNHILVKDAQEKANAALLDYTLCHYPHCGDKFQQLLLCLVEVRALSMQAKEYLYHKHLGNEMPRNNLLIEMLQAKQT
Beta-galactosidase, sequence (Q8VNN2 whole entry): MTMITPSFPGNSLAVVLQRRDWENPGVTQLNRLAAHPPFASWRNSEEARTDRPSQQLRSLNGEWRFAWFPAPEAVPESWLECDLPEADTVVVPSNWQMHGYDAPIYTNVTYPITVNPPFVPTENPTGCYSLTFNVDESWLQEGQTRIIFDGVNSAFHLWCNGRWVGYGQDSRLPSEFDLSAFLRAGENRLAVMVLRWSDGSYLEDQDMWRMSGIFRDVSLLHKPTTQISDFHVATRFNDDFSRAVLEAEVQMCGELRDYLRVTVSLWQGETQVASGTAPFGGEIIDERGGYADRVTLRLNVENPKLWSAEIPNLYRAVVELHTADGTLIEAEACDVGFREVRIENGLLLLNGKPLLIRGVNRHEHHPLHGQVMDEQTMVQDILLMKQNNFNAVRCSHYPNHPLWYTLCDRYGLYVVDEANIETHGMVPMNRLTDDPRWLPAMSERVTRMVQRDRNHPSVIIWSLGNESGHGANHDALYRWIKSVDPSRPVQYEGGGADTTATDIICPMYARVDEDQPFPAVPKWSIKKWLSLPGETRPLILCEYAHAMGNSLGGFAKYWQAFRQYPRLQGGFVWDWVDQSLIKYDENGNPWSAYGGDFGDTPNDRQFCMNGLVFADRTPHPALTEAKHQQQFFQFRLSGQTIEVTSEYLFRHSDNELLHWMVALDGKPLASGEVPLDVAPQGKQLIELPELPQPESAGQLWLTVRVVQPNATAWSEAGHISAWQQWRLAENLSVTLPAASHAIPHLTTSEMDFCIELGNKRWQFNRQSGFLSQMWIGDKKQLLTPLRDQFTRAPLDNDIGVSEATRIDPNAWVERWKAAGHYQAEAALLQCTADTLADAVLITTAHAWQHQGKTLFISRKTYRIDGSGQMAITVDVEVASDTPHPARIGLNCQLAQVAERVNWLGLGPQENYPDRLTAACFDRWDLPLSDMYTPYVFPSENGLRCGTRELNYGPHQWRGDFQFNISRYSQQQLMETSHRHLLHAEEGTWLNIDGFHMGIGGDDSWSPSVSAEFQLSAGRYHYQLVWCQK
Nuclear receptor subfamily 5 group A member 2, sequence (O00482 whole entry): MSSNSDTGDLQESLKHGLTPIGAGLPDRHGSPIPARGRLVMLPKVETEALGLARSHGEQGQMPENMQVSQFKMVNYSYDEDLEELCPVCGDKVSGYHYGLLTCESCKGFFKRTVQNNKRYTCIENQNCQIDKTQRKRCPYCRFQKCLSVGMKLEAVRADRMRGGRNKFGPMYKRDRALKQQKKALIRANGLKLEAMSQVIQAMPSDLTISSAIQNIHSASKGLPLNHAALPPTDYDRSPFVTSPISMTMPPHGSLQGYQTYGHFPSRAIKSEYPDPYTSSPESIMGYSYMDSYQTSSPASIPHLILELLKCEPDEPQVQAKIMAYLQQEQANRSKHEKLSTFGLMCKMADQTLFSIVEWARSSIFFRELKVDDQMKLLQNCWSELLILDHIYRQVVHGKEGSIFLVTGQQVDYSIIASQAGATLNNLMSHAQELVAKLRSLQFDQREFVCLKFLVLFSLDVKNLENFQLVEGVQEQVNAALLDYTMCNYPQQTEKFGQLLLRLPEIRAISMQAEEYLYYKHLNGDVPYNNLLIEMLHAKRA
Melanocortin receptor 4, sequence (P32245 whole entry): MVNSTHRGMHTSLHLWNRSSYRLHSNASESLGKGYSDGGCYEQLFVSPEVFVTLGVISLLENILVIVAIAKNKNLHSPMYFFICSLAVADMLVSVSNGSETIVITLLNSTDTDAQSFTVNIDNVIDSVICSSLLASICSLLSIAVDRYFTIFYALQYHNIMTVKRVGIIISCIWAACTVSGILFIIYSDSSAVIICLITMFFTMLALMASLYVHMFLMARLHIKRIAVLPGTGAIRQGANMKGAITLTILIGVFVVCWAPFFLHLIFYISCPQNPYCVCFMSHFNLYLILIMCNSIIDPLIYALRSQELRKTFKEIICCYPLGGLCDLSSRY

O=C1C2=C(N=C(S)NC2c2ccc(Cl)cc2)NC(c2ccc(Cl)cc2)N1c1ccc(Cl)cc1 (stereo unspecified)
EC50 [1]: 2.61 µM (active) | EC50 [2]: 1.89 µM (active) | EC50 [3]: > 260 µM (inactive) | AC50 [4]: 5.92 µM (active) | EC50 [5]: > 60 µM (not active) | EC50 [6]: > 150 µM (not active) | EC50 [7]: 13.1 µM (active) | EC50 [8]: 9.63 µM (active) | AC50 [9]: 4.68 µM (active) | EC50 [10]: 3.44 µM (active)

Cc1ccc(C)c(N2CCN(C(=O)c3cc4c(C)nc5ccccc5c4o3)CC2)c1
CC50 [11]: 8.05 µM (active) | IC50 [12]: > 80 µM (inactive)

O=C(OCC(=O)N1CCN(C(=O)COC(=O)c2ccc(O)cc2O)CC1)c1ccc(O)cc1O
IC50 [13]: 3.09 µM (active) | IC50 [14]: 3.12 µM (active) | IC50 [15]: 35.9 µM (inactive)

CCOC(=O)C1=C(Nc2ccc(OC)cc2)S/C(=C\c2cc(OC)c(OC)c(OC)c2)C1=O
IC50 [12]: > 80 µM (inactive)

O=C(Nc1ccc(Cc2ccncc2)cc1)c1ccc([N+](=O)[O-])o1
AC50 [16]: 25.4 µM (active) | IC50 [13]: 0.831 µM (active) | IC50 [14]: 35.9 µM (inactive) | IC50 [15]: 35.9 µM (inactive) | CC50 [17]: 4.99 µM (active) | AC50 [18]: 2.71 µM (active) | IC50 [19]: 1.3 µM (active) | AC50 [20]: 7.72 µM (active) | CC50 [21]: 5.59 µM (active) | AC50 [22]: 13.9 µM (active)
